The Kinase Knowledgebase extract (Sharma et al. 2016)

What was measured:
PIK3CG (human) = PIK3CG (human) (UniProt P48736); experiment: Assessment of PIK3CG Kinase Activity
PIK3CA (human) = PIK3CA (human) (UniProt P42336); experiment: Assessment of PIK3CA Kinase Activity
PIK3CD (Human) [1] = target: PIK3CD (Human) (UniProt O00329); experiment: Assessment of PIK3CD Kinase Activity in RAJI Cells
PIK3CD (Human) [2] = target: PIK3CD (Human) (UniProt O00329); experiment: Assessment of PIK3CD Kinase Activity
PIK3CB (Human) = PIK3CB (Human) (UniProt P42338); experiment: Assessment of PIK3CB Kinase Activity
Chain of PIK3CB (Human) (P42338 whole entry, looked up): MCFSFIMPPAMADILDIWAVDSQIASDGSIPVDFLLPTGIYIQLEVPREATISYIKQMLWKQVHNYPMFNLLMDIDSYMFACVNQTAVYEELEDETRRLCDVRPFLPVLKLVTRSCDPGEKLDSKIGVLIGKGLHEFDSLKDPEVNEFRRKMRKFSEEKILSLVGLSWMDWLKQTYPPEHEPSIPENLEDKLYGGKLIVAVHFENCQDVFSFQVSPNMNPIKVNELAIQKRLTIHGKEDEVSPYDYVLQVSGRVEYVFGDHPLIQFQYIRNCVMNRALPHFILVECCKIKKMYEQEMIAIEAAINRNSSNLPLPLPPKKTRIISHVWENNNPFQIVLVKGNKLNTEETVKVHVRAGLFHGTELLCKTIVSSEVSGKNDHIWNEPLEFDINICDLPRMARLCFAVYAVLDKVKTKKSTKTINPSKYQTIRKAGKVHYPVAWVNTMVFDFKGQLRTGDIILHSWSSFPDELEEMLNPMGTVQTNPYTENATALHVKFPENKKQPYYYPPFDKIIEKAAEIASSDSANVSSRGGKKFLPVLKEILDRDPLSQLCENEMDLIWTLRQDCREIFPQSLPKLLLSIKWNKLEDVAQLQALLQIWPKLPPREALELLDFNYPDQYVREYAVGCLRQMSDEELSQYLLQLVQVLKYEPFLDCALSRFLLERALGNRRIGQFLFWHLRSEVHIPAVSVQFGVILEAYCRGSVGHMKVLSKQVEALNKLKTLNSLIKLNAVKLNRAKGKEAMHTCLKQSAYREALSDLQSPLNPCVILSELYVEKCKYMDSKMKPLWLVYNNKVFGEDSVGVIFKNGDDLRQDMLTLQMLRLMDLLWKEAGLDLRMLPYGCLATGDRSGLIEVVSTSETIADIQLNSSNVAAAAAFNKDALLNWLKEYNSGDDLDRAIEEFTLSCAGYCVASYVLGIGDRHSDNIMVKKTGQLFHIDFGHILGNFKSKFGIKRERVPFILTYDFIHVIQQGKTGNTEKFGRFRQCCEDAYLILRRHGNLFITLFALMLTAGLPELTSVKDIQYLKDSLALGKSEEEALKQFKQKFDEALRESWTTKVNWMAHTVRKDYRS

Chain of PIK3CA (human) (P42336 whole entry, looked up): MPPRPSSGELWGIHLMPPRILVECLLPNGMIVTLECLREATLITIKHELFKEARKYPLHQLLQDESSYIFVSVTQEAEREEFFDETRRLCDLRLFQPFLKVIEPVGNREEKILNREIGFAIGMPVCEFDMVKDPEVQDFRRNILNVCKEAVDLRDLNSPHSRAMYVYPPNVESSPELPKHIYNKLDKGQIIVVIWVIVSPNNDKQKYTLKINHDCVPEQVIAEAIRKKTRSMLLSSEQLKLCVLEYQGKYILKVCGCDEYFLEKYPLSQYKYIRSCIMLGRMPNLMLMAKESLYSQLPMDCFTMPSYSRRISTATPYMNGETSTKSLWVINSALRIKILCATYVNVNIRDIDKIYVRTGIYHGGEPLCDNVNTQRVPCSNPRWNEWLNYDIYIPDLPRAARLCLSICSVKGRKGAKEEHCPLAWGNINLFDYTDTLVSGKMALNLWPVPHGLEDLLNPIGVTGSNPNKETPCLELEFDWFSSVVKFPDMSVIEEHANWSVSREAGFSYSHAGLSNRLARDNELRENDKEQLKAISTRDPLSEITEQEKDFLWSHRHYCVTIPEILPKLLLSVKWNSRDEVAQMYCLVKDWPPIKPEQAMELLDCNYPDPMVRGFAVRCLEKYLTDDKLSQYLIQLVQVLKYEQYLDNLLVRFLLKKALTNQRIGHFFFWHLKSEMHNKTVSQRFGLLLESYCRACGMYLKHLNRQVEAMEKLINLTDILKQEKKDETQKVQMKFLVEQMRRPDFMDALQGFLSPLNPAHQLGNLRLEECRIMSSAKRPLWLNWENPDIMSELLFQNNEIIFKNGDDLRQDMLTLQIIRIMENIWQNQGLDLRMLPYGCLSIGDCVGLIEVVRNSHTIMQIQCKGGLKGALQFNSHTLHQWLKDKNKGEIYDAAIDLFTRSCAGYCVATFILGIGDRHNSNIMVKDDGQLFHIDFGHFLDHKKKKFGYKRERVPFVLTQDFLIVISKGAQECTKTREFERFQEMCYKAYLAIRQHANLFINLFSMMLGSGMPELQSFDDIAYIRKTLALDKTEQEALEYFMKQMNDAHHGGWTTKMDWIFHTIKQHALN
Chain of PIK3CD (Human) (O00329 whole entry, looked up): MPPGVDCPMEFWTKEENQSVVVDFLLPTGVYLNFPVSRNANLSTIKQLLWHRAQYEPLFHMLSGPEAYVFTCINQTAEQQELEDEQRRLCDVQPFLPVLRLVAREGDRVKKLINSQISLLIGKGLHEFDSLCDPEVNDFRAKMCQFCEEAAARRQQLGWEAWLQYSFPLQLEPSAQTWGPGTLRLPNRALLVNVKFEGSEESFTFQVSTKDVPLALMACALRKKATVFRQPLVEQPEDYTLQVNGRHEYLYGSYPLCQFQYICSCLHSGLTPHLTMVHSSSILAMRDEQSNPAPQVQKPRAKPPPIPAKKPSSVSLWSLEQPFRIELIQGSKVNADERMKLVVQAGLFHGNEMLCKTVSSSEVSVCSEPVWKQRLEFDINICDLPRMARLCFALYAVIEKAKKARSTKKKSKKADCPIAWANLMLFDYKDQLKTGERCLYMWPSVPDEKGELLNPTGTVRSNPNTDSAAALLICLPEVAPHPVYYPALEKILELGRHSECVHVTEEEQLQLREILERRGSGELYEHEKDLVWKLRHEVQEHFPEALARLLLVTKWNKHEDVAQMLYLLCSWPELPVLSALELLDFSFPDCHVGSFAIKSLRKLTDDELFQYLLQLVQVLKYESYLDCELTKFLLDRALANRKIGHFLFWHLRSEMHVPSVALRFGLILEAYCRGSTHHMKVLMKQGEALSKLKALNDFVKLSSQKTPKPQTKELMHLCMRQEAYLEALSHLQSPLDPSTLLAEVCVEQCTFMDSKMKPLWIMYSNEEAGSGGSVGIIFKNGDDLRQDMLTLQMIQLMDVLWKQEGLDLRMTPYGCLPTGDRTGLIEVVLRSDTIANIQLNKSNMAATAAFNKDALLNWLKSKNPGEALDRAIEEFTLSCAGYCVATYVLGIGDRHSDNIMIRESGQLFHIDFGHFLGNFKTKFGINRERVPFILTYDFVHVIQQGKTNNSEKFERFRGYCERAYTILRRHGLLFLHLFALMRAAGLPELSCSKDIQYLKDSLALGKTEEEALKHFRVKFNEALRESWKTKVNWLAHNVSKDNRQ
Chain of PIK3CG (human) (P48736 whole entry, looked up): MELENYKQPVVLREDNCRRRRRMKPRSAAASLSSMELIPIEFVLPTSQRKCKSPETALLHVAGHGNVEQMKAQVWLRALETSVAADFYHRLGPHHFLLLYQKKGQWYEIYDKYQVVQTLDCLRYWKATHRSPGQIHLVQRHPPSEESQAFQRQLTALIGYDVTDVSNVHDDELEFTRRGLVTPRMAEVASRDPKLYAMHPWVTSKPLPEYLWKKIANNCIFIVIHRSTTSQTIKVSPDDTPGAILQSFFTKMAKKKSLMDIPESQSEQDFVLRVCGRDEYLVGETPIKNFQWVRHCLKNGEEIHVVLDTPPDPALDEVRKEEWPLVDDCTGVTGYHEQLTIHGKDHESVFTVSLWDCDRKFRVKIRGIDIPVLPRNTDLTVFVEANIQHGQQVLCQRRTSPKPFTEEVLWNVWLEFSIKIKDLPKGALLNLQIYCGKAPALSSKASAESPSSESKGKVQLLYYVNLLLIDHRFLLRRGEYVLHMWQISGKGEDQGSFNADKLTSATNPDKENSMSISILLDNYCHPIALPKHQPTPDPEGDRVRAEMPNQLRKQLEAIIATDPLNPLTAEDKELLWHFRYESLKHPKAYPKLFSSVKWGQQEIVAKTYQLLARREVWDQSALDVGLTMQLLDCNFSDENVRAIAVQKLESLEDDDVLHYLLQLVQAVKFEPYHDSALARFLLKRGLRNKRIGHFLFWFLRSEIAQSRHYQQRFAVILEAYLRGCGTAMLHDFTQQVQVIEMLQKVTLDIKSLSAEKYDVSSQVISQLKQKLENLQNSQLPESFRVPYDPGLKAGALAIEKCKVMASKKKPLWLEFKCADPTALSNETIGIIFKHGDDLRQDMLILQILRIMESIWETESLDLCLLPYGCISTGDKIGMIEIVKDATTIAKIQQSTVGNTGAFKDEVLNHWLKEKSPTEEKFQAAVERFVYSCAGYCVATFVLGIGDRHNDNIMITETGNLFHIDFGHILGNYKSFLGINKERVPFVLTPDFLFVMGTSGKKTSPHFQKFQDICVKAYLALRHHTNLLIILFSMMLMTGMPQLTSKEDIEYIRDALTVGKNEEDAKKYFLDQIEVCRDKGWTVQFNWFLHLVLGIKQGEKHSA

Row | SMILES | IC50 (PIK3CG (human)) [nM] | IC50 (PIK3CA (human)) [nM] | IC50 (PIK3CD (Human) [1]) [nM] | IC50 (PIK3CD (Human) [2]) [nM] | IC50 (PIK3CB (Human)) [nM]
1 | C[C@H](Nc1nc(N)ncc1-c1ccc(S(C)(=O)=O)nc1)c1cc2cccc(Cl)c2c(=O)n1-c1ccccc1 | 100 to 1000 | > 10000 | < 100 |  | 
2 | C[C@H](Nc1nc(N)ncc1C#N)c1cc2cccc(Cl)c2c(=O)n1-c1c(F)cccc1F | 100 to 1000 | > 10000 | < 100 |  | 
3 | CCS(=O)(=O)c1cccc(-c2cnc(N)nc2N[C@@H](C)c2cc3cccc(Cl)c3c(=O)n2-c2ccccc2)c1 | > 10000 |  | < 100 | 100 to 1000 | 100 to 1000
4 | COc1ncc(-c2cccc3cc([C@H](C)Nc4ncnc(N)c4C#N)n(-c4ccon4)c(=O)c23)cn1 |  |  | < 100 | 100 to 1000 | > 10000
5 | COC(=O)c1cccc(-n2c([C@H](C)Nc3nc(N)ncc3C#N)cc3cccc(Cl)c3c2=O)c1 |  |  | < 100 | 100 to 1000 | > 10000
6 | C[C@H](Nc1nc(N)ncc1-c1cccc(S(C)(=O)=O)c1)c1cc2cccc(C(F)(F)F)c2c(=O)n1-c1ccccc1 | 100 to 1000 |  | < 100 | 100 to 1000 | 
7 | CC(C)n1c([C@H](C)Nc2ncnc(N)c2C#N)cc2cccc(Cl)c2c1=O | 100 to 1000 |  | < 100 | < 100 | 
8 | CCOc1nc(-c2cnc(N)nc2N[C@@H](C)c2cc3cccc(-c4cnc(OC)nc4)c3c(=O)n2-c2ccccc2)cs1 | 100 to 1000 |  | < 100 | < 100 | 
9 | C[C@H](Nc1nc(N)ncc1C#N)c1cc2cccc(Cl)c2c(=O)n1-c1cccc(C#N)c1 | 100 to 1000 |  | < 100 | < 100 | 100 to 1000
10 | N#Cc1cnc(N)nc1NCc1cc2cccc(Cl)c2c(=O)n1-c1ccccc1 | 100 to 1000 |  | < 100 | < 100 | 
11 | C[C@H](Nc1nc(N)ncc1C#N)c1cc2cccc(-c3ccnnc3)c2c(=O)n1C1CC1 | 100 to 1000 | > 10000 |  | < 100 | 100 to 1000
12 | C[C@H](Nc1nc(N)ncc1C(=O)C1CC1)c1cc2cccc(Cl)c2c(=O)n1-c1ccccc1 |  |  | < 100 |  | > 10000
13 | C[C@H](Nc1ncncc1-c1cccc(S(=O)(=O)N(C)C)c1)c1cc2cccc(Cl)c2c(=O)n1-c1ccccc1 | 100 to 1000 |  | < 100 | 100 to 1000 | > 10000
14 | COc1ncc(-c2cccc3cc([C@H](C)Nc4nc(N)ncc4C(F)(F)F)n(-c4ccccc4)c(=O)c23)cn1 | 100 to 1000 | > 10000 |  | < 100 | > 10000
15 | COc1cc(-c2cccc3cc([C@H](C)Nc4nc(N)ncc4C(=O)N4CC(F)(F)C4)n(-c4ccccc4)c(=O)c23)ccn1 | 100 to 1000 | > 10000 |  | 100 to 1000 | > 10000
16 | C[C@H](Nc1nc(N)ncc1C#N)c1cc2cccc(-c3ccc(=O)n(C)c3)c2c(=O)n1-c1ccon1 | 100 to 1000 |  | < 100 |  | 
17 | C[C@H](Nc1cc(C(F)(F)F)nc(N)n1)c1cc2cccc(Cl)c2c(=O)n1-c1ccccc1 | > 10000 | > 10000 |  | > 10000 | > 10000
18 | COc1ncc(-c2cccc3cc([C@H](C)Nc4nc(N)ncc4C(F)(F)F)n(-c4cccc(F)c4)c(=O)c23)cn1 | 100 to 1000 | > 10000 |  | < 100 | > 10000
19 | COc1cc(-c2cccc3cc([C@@H](C)Nc4nc(N)ncc4C#N)n(-c4ccccc4)c(=O)c23)ccn1 | 100 to 1000 | > 10000 |  | < 100 | > 10000
20 | C[C@H](Nc1nc(N)ncc1-c1cncc(S(C)(=O)=O)c1)c1cc2cccc(Cl)c2c(=O)n1-c1ccccc1 | 100 to 1000 |  | < 100 |  | 
21 | C[C@H](Nc1nc(N)ncc1[N+](=O)[O-])c1cc2cccc(Cl)c2c(=O)n1-c1ccccc1 | < 100 | > 10000 |  | < 100 | 100 to 1000
22 | C[C@H](Nc1nc(N)ncc1-c1cccnc1)c1cc2cccc(Cl)c2c(=O)n1-c1ccccc1 | < 100 | > 10000 |  | 100 to 1000 | > 10000
23 | C[C@H](Nc1nc(N)ncc1-c1cnc(S(C)(=O)=O)s1)c1cc2cccc(Cl)c2c(=O)n1-c1ccccc1 | < 100 | > 10000 | < 100 | < 100 | 
24 | C[C@H](Nc1nc(N)ncc1C#N)c1cc2cccc(Cl)c2c(=O)n1C1CCCC1 | < 100 | > 10000 |  | < 100 | 100 to 1000
25 | C[C@H](Nc1nc(N)ncc1C#N)c1cc2cccc(-c3cnc4ccccc4c3)c2c(=O)n1-c1ccccc1 | < 100 | < 100 |  | < 100 | 100 to 1000

Continued, values first:

Row | IC50 (PIK3CG (human)) [nM] | IC50 (PIK3CA (human)) [nM] | IC50 (PIK3CD (Human) [1]) [nM] | IC50 (PIK3CD (Human) [2]) [nM] | IC50 (PIK3CB (Human)) [nM] | SMILES
26 | < 100 | > 10000 | < 100 |  |  | COc1cc(-n2c([C@H](C)Nc3nc(N)ncc3C#N)cc3cccc(Cl)c3c2=O)ccc1F
27 | < 100 |  | < 100 | 100 to 1000 |  | C[C@H](Nc1nc(N)ncc1-c1cccc(N(C)S(C)(=O)=O)c1)c1cc2cccc(Cl)c2c(=O)n1-c1ccccc1
28 | < 100 | > 10000 | < 100 |  |  | C[C@H](Nc1nc(N)ncc1C#N)c1cc2cccc(Cl)c2c(=O)n1-c1ccc(F)c(F)c1
29 | < 100 | > 10000 | < 100 | < 100 |  | Cc1ccc(NS(C)(=O)=O)cc1-c1cnc(N)nc1N[C@@H](C)c1cc2cccc(Cl)c2c(=O)n1-c1ccccc1
30 | < 100 | > 10000 | < 100 | < 100 |  | COc1ncc(-c2cnc(N)nc2N[C@@H](C)c2cc3cccc(Cl)c3c(=O)n2-c2ccccc2)s1
31 | < 100 |  | < 100 | < 100 |  | C[C@H](Nc1nc(N)ncc1-c1cccc(S(=O)(=O)C2CC2)c1)c1cc2cccc(Cl)c2c(=O)n1-c1ccccc1
32 | < 100 | > 10000 | < 100 | 100 to 1000 |  | COc1cccc(-n2c([C@H](C)Nc3nc(N)ncc3C#N)cc3cccc(Cl)c3c2=O)c1
33 | < 100 |  | < 100 | 100 to 1000 |  | C[C@H](Nc1nc(N)ncc1-c1cccc(S(C)(=O)=O)c1)c1cc2cccc(Cl)c2c(=O)n1-c1ccccc1
34 | < 100 | > 10000 |  | < 100 | > 10000 | COc1cc(-c2cccc3cc([C@H](C)Nc4nc(N)ncc4-c4ccc(F)c(O)c4)n(-c4ccccc4)c(=O)c23)ccn1
35 | < 100 |  | < 100 |  |  | C[C@H](Nc1nc(N)ncc1C#N)c1cc2cccc(-c3cncc(NS(C)(=O)=O)c3)c2c(=O)n1-c1ccccc1
36 | < 100 | 100 to 1000 |  | < 100 | > 10000 | COc1cc(-c2cccc3cc([C@H](C)Nc4nc(N)ncc4C(=O)N(C)C)n(-c4ccccc4)c(=O)c23)ccn1
37 | < 100 | 100 to 1000 |  | < 100 | 100 to 1000 | C[C@H](Nc1nc(N)ncc1C#N)c1cc2cccc(-c3cnc4[nH]ccc4c3)c2c(=O)n1-c1ccccc1
38 | < 100 | > 10000 | < 100 |  |  | C[C@H](Nc1nc(N)ncc1C#N)c1cc2cccc(Cl)c2c(=O)n1C1CC1
39 | < 100 |  | < 100 | 100 to 1000 | 100 to 1000 | CNS(=O)(=O)c1cccc(-c2cnc(N)nc2N[C@@H](C)c2cc3cccc(Cl)c3c(=O)n2-c2ccccc2)c1
40 | < 100 | 100 to 1000 |  | < 100 | 100 to 1000 | Cc1ccc(-c2cccc3cc([C@H](C)Nc4nc(N)ncc4C#N)n(-c4ccccc4)c(=O)c23)cc1
41 | < 100 | 100 to 1000 |  | < 100 | 100 to 1000 | C[C@H](Nc1nc(N)ncc1C#N)c1cc2cccc(C#CCCC(=O)N3CCOCC3)c2c(=O)n1-c1ccccc1
42 | < 100 | 100 to 1000 |  | < 100 | 100 to 1000 | COc1cncc(-c2cccc3cc([C@H](C)Nc4nc(N)ncc4C#N)n(C4CC4)c(=O)c23)c1
43 | < 100 |  | < 100 | 100 to 1000 | > 10000 | C[C@H](Nc1nc(N)ncc1-c1cccc(S(N)(=O)=O)c1)c1cc2cccc(Cl)c2c(=O)n1-c1ccccc1
44 | < 100 | 100 to 1000 |  | < 100 | 100 to 1000 | C[C@H](Nc1nc(N)ncc1C#N)c1cc2cccc(-c3cnc4[nH]ccc4c3)c2c(=O)n1-c1cccc(F)c1
45 | < 100 | > 10000 |  | 100 to 1000 | > 10000 | COc1cc(-c2cccc3cc([C@H](C)Nc4nc(N)ncc4-c4ccccc4)n(-c4ccccc4)c(=O)c23)ccn1
46 | < 100 | > 10000 |  | < 100 | > 10000 | COc1cc(-c2cccc3cc([C@H](C)Nc4nc(N)ncc4-c4ccc(O)c(F)c4)n(-c4ccccc4)c(=O)c23)ccn1
47 | < 100 | 100 to 1000 |  | < 100 | 100 to 1000 | CSc1ncc(-c2cnc(N)nc2N[C@@H](C)c2cc3cccc(Cl)c3c(=O)n2-c2ccccc2)s1
48 | < 100 | > 10000 |  | < 100 | > 10000 | Cc1ncc(-c2cccc3nc([C@H](C)Nc4nc(N)ncc4C#N)n(-c4ccccc4)c(=O)c23)cn1
49 | < 100 | < 100 |  | < 100 | < 100 | C[C@H](Nc1nc(N)ncc1-c1csc(S(C)(=O)=O)n1)c1cc2cccc(Cl)c2c(=O)n1-c1ccccc1
50 | < 100 |  | < 100 | < 100 |  | COc1ncc(-c2cccc3cc([C@H](C)Nc4nc(N)ncc4-c4cncs4)n(-c4ccccc4)c(=O)c23)cn1
51 | < 100 |  | < 100 | < 100 |  | C[C@H](Nc1nc(N)ncc1-c1cccc(NS(C)(=O)=O)c1)c1cc2cccc(Cl)c2c(=O)n1-c1ccccc1
52 | < 100 | > 10000 |  | < 100 | > 10000 | C[C@H](Nc1nc(N)ncc1C#N)c1cc2cccc(-c3ccnc(O)c3)c2c(=O)n1-c1ccccc1
53 | < 100 | 100 to 1000 | < 100 | < 100 |  | COc1cc(-c2cccc3cc([C@H](C)Nc4nc(N)ncc4C#N)n(-c4ccccc4)c(=O)c23)ccn1
